# Values of other authors as cited in patent publication US6765009B2, “1,4-Disubstituted benzo-fused compounds” (Boehringer Ingelheim Pharmaceuticals, Inc., priority 2001, dated 2004).
# What was measured:
# [1] = system: closed brain injury; conditions: experimental model
# [2] = system: rheumatoid arthritis; conditions: Phase III clinical trial
# [3] = system: septic shock syndrome; conditions: phase III human clinical trial
compound,measurement,setting,value
CCCCCCC(C)(C)c1cc(O)c2c(c1)OC(C)(C)[C@H]1CC=C(CO)C[C@H]21 [HU-211],outcome of closed brain injury,[1],improve the outcome
Enbrel,efficacy in treatment of rheumatoid arthritis,[2],demonstrated efficacy
"IL-1ra: ""IL-1 receptor antagonist (IL-1ra) had been examined in human clinical trials"" ... ""(Antril, Amgen)""",mortality rate in patients with septic shock syndrome,[3],reduced the mortality rate
